Results as given in US20220226341A1, “Pharmaceutical Composition for Alzheimer's Disease” (Kyoto University, priority 2019, published 2022).

Key:
[1] = system: Human Herpesvirus Type 7 (HHV-7); assay: Antiviral test against HHV-7 in Sup-T1 cells, TaqMan PCR; assay type: cell-based
Experimental: [Antiviral Test Against HHV-7]
An antiviral test against HHV-7 using Compound 1 was performed by the following procedure.
Virus strain: Human Herpesvirus Type 7 (HHV-7)
Medium: RPMI-1640+10% FBS+1% penicillin/streptomycin
Detection method: TaqMan PCR
Sup-T1 cells were cultured at a concentration of 1×10^6/ml, Compound 1, 10 μM, was added, and one hour after, HHV-7 virus (1×10^4 infectious units) were sensitized (or unsensitized cells were prepared as a negative control).
After culturing at 37° C. for two hours, the medium was replaced, and Compound 1 was added again. Five days after, 500 μl of the medium was sampled, and HHV-7 virus was quantified by TaqMan PCR. Statistical analysis was performed by Student's t-test.

[2] = Tissue distribution of radioactivity after single intravenous administration of 14C-labeled Compound 1 (blood-brain barrier penetration); assay type: in vivo; settings: rats, single iv 5 mg/kg 14C-labeled, n = 3
Experimental: [Testing the Penetration of the Compound Through the Blood-Brain Barrier]
Brain permeability (intracerebral transferability) of Compound 1 was evaluated.
^14C-labeled Compound 1 was intravenously administered once in a dose of 5 mg/kg (3.52 MBq/kg) to rats, and histological distribution (biodistribution) thereof was studied.

## Fc1ccc(N2CCCCC2)c(NC(=S)c2ccncc2)c1 [Compound 1]
[1]; 10 μM, in words
  Effect of suppressing growth of HHV-7: effect of suppressing growth of HHV-7 was confirmed
[1]; Compound 1 10 μM, medium sampled five days after, TaqMan PCR
  HHV-7 copy number: 1844.89
[2]; Adrenal gland, 5 min
  Radioactivity concentration: 47334.91 ng eq. of Compound 1/g or mL
[2]; Adrenal gland, 6 h
  Radioactivity concentration: 1517.3 ng eq. of Compound 1/g or mL
[2]; Adrenal gland, 24 h
  Radioactivity concentration: 195.16 ng eq. of Compound 1/g or mL
[2]; Adrenal gland, 72 h
  Radioactivity concentration: 23.21 ng eq. of Compound 1/g or mL
[2]; Aorta, 5 min
  Radioactivity concentration: 1995.27 ng eq. of Compound 1/g or mL
[2]; Aorta, 6 h
  Radioactivity concentration: 730.03 ng eq. of Compound 1/g or mL
[2]; Aorta, 24 h
  Radioactivity concentration: 76.22 ng eq. of Compound 1/g or mL
[2]; Bonemarrow, 5 min
  Radioactivity concentration: 6109.89 ng eq. of Compound 1/g or mL
[2]; Bonemarrow, 6 h
  Radioactivity concentration: 900.75 ng eq. of Compound 1/g or mL
[2]; Bonemarrow, 24 h
  Radioactivity concentration: 106.7 ng eq. of Compound 1/g or mL
[2]; Brown fat, 5 min
  Radioactivity concentration: 8467.9 ng eq. of Compound 1/g or mL
[2]; Brown fat, 6 h
  Radioactivity concentration: 6412.21 ng eq. of Compound 1/g or mL
[2]; Brown fat, 24 h
  Radioactivity concentration: 217.43 ng eq. of Compound 1/g or mL
[2]; Brown fat, 72 h
  Radioactivity concentration: 11.3 ng eq. of Compound 1/g or mL
[2]; Cecum, 5 min
  Radioactivity concentration: 5555.55 ng eq. of Compound 1/g or mL
[2]; Cecum, 6 h
  Radioactivity concentration: 3979.48 ng eq. of Compound 1/g or mL
[2]; Epididymis, 5 min
  Radioactivity concentration: 2568.88 ng eq. of Compound 1/g or mL
[2]; Epididymis, 6 h
  Radioactivity concentration: 1809.29 ng eq. of Compound 1/g or mL
[2]; Epididymis, 24 h
  Radioactivity concentration: 312.66 ng eq. of Compound 1/g or mL
[2]; Epididymis, 72 h
  Radioactivity concentration: 21.99 ng eq. of Compound 1/g or mL
[2]; Eyeball, 5 min
  Radioactivity concentration: 1785.93 ng eq. of Compound 1/g or mL
[2]; Eyeball, 6 h
  Radioactivity concentration: 960.39 ng eq. of Compound 1/g or mL
[2]; Eyeball, 24 h
  Radioactivity concentration: 117.64 ng eq. of Compound 1/g or mL
[2]; Eyeball, 72 h
  Radioactivity concentration: 7.03 ng eq. of Compound 1/g or mL
[2]; Fat, 5 min
  Radioactivity concentration: 1181.88 ng eq. of Compound 1/g or mL
[2]; Fat, 6 h
  Radioactivity concentration: 5031.8 ng eq. of Compound 1/g or mL
[2]; Fat, 24 h
  Radioactivity concentration: 1665.35 ng eq. of Compound 1/g or mL
[2]; Fat, 72 h
  Radioactivity concentration: 112.35 ng eq. of Compound 1/g or mL
[2]; Harderian gland, 5 min
  Radioactivity concentration: 12633.83 ng eq. of Compound 1/g or mL
[2]; Harderian gland, 6 h
  Radioactivity concentration: 1418.19 ng eq. of Compound 1/g or mL
[2]; Harderian gland, 24 h
  Radioactivity concentration: 131.47 ng eq. of Compound 1/g or mL
[2]; Harderian gland, 72 h
  Radioactivity concentration: 8.95 ng eq. of Compound 1/g or mL
[2]; Heart, 5 min
  Radioactivity concentration: 8604.53 ng eq. of Compound 1/g or mL
[2]; Heart, 6 h
  Radioactivity concentration: 912.54 ng eq. of Compound 1/g or mL
[2]; Heart, 24 h
  Radioactivity concentration: 105.78 ng eq. of Compound 1/g or mL
[2]; Heart, 72 h
  Radioactivity concentration: 10.01 ng eq. of Compound 1/g or mL
[2]; Kidney, 5 min
  Radioactivity concentration: 13230.64 ng eq. of Compound 1/g or mL
[2]; Kidney, 6 h
  Radioactivity concentration: 2138.26 ng eq. of Compound 1/g or mL
[2]; Kidney, 24 h
  Radioactivity concentration: 264.55 ng eq. of Compound 1/g or mL
[2]; Kidney, 72 h
  Radioactivity concentration: 31.5 ng eq. of Compound 1/g or mL
[2]; Kidney, 168 h
  Radioactivity concentration: 12.02 ng eq. of Compound 1/g or mL
[2]; Liver, 5 min
  Radioactivity concentration: 29518.18 ng eq. of Compound 1/g or mL
[2]; Liver, 6 h
  Radioactivity concentration: 3033.96 ng eq. of Compound 1/g or mL
[2]; Liver, 24 h
  Radioactivity concentration: 740.19 ng eq. of Compound 1/g or mL
[2]; Liver, 72 h
  Radioactivity concentration: 180.72 ng eq. of Compound 1/g or mL
[2]; Liver, 168 h
  Radioactivity concentration: 48.2 ng eq. of Compound 1/g or mL
[2]; Lung, 5 min
  Radioactivity concentration: 7645.96 ng eq. of Compound 1/g or mL
[2]; Lung, 6 h
  Radioactivity concentration: 1247.84 ng eq. of Compound 1/g or mL
[2]; Lung, 24 h
  Radioactivity concentration: 175.43 ng eq. of Compound 1/g or mL
[2]; Lung, 72 h
  Radioactivity concentration: 33.55 ng eq. of Compound 1/g or mL
[2]; Lung, 168 h
  Radioactivity concentration: 12.98 ng eq. of Compound 1/g or mL
